Test results from patent US12264159B2, “Functionalized heterocycles as antiviral agents” (Enanta Pharmaceuticals, Inc., priority 2018, dated 2025).

What was measured:
HBV in 2.2.15 cells = assay: 2.2.15 cells: viral product in cell lysates quantified via quantitative real time PCR; type: cell-based, hepatitis B virus (HBV); details: Hepatitis B virus, 120 h, day 5 post treatment, 50% reduction of viral product vs no drug controls, readout (qPCR, HBsAg or HBeAg) not specified for the column
Protocol: 2.2.15 cells are passaged upon attaining confluency in DMEM/F12 media in the presence of 10% FBS, Penn/Strep, and 250 ug/mL G418. Novel compounds are 5 fold serially diluted in DMSO and added to 96 well plates containing 35,000 cells/well at a 1:200 dilution so that the final concentration of DMSO is 0.5%. On day 5, post treatment cell lysates and supernatants are harvested for analysis.
Cells are lysed using Agilent Sidestep Lysis buffer, diluted 1:100 and quantified via quantitative real time PCR. Commercially available ELISA kits are used to quantitate the viral proteins HBsAg (Alpco) or HBeAg (US Biological) by following the manufacturer's recommended protocol after diluting samples to match the linear range of their respective assays. Irrespective of readout, compound concentrations that reduce viral product accumulation in the cell lysates or supernatants by 50% relative to no drug controls (EC50) are reported; EC50 ranges are as follows: A<0.1 μM; B 0.2-1 μM; C>1 μM.

[1] = Compound induced cellular toxicity in HepG2 cells, ATPlite 1Step; type: cell-based; details: human, three days exposure, 50% reduction of total ATP vs no drug controls
Protocol: At day 3, post seeding cells are treated with ATPlite 1Step according to the manufacturer's instructions.

Row | SMILES | EC50 (HBV in 2.2.15 cells) | CC50 at 3 days [1]
1 | Cn1cc(-c2cc3n(n2)C[C@@H](C(C)(C)C)n2cc(C(=O)O)c(=O)cc2-3)cn1 [Example 5, (R)-6-(tert-butyl)-2-(2-methyl-1H-pyrazol-4-yl)-10-oxo-5,6-dihydro-10H-pyrazolo[1,5-a]pyrido[2,2-c]pyrazine-12-carboxylic acid] | < 100 nM | > 25000 nM
2 | CC(C)(C)[C@@H]1Cn2ncc(-c3ccc(F)c(F)c3)c2-c2cc(=O)c(C(=O)O)cn21 [Example 110, (R)-6-(tert-butyl)-1-(3,4-difluorophenyl)-10-oxo-5,6-dihydro-10H-pyrazolo[1,5-a]pyrido[2,1-c]pyrazine-9-carboxylic acid] | < 100 nM | < 10000 nM
3 | CC(C)(C)[C@@H]1Cn2nc(-c3cnc(NC4CC4)nc3)cc2-c2cc(=O)c(C(=O)O)cn21 [Example 15, (R)-6-(tert-butyl)-2-(2-(cyclopropylamino)pyrimidin-5-yl)-10-oxo-5,6-dihydro-10H-pyrazolo[1,5-a]pyrido[2,2-c]pyrazine-12-carboxylic acid] | < 100 nM | > 25000 nM
4 | CC(C)(C)[C@@H]1Cn2nc(-c3ccc(F)c(F)c3F)cc2-c2cc(=O)c(C(=O)O)cn21 [Example 44, (R)-6-(tert-butyl)-10-oxo-2-(2,3,4-trifluorophenyl)-5,6-dihydro-10H-pyrazolo[1,5-a]pyrido[2,2-c]pyrazine-12-carboxylic acid] | < 100 nM | > 25000 nM
5 | COc1ccc(-c2cnn3c2-c2cc(=O)c(C(=O)O)cn2[C@H](C(C)(C)C)C3)cc1 [Example 114, (R)-6-(tert-butyl)-1-(4-methoxyphenyl)-10-oxo-5,6-dihydro-10H-pyrazolo[1,5-a]pyrido[2,1-c]pyrazine-9-carboxylic acid] | < 100 nM | > 25000 nM
6 | COc1ccc(OC)c(-c2cc3n(n2)C[C@@H](C(C)(C)C)n2cc(C(=O)O)c(=O)cc2-3)c1OC [Example 35, (R)-6-(tert-butyl)-10-oxo-2-(2,3,6-trimethoxyphenyl)-5,6-dihydro-10H-pyrazolo[1,5-a]pyrido[2,2-c]pyrazine-12-carboxylic acid] | 200 to 1000 nM | > 25000 nM
7 | O=C(O)c1cn2c(cc1=O)-c1c(-c3ccccc3)c(-c3ccccc3)nn1CC2 [Example 199, 10-oxo-1,2-diphenyl-5,6-dihydro-10H-pyrazolo[1,5-a]pyrido[2,1-c]pyrazine-9-carboxylic acid] | < 100 nM | > 25000 nM
8 | CC(C)(C)[C@@H]1Cn2nc(-c3ccoc3)c(-c3ccoc3)c2-c2cc(=O)c(C(=O)O)cn21 [Example 96, (R)-6-(tert-butyl)-1,2-di(furan-3-yl)-10-oxo-5,6-dihydro-10H-pyrazolo[1,5-a]pyrido[2,1-c]pyrazine-9-carboxylic acid] | < 100 nM | > 25000 nM
9 | Cc1ccc(-c2cc3n(n2)C[C@@H](C(C)(C)C)n2cc(C(=O)O)c(=O)cc2-3)cc1 [Example 20, (R)-6-(tert-butyl)-10-oxo-2-(p-tolyl)-5,6-dihydro-10H-pyrazolo[1,5-a]pyrido[2,2-c]pyrazine-12-carboxylic acid] | < 100 nM | > 25000 nM
10 | CCOc1ccccc1-c1nc2n(n1)C[C@@H](C(C)(C)C)n1cc(C(=O)O)c(=O)cc1-2 [Example 86, (R)-6-(tert-butyl)-2-(2-ethoxyphenyl)-10-oxo-5,6-dihydro-10H-pyrido[1,2-a][1,2,4]triazolo[5,2-c]pyrazine-12-carboxylic acid] | < 100 nM | > 25000 nM
11 | CC(C)(C)[C@@H]1Cn2nc(-c3ccc(F)c(F)c3)cc2-c2cc(=O)c(C(=O)O)cn21 [Example 60, (R)-6-(tert-butyl)-2-(3,4-difluorophenyl)-10-oxo-5,6-dihydro-10H-pyrazolo[1,5-a]pyrido[2,2-c]pyrazine-12-carboxylic acid] | < 100 nM | > 25000 nM
12 | CC(C)(C)[C@@H]1Cn2nc(-c3c(F)ccc4c3OCO4)cc2-c2cc(=O)c(C(=O)O)cn21 [Example 54, (R)-6-(tert-butyl)-2-(5-fluorobenzo[d][1,3]dioxol-4-yl)-10-oxo-5,6-dihydro-10H-pyrazolo[1,5-a]pyrido[2,2-c]pyrazine-12-carboxylic acid] | < 100 nM | > 25000 nM
13 | CC(C)(C)[C@@H]1Cn2nc(-c3ccccc3C(F)F)cc2-c2cc(=O)c(C(=O)O)cn21 [Example 85] | 200 to 1000 nM | > 25000 nM
14 | COc1ccccc1-c1cnn2c1-c1cc(=O)c(C(=O)O)cn1[C@H](C(C)(C)C)C2 [Example 112, (R)-6-(tert-butyl)-1-(2-methoxyphenyl)-10-oxo-5,6-dihydro-10H-pyrazolo[1,5-a]pyrido[2,1-c]pyrazine-9-carboxylic acid] | < 100 nM | > 25000 nM
15 | COc1cccc(C)c1-c1cc2n(n1)C[C@@H](C(C)(C)C)n1cc(C(=O)O)c(=O)cc1-2 [Example 49, (R)-6-(tert-butyl)-2-(2-methoxy-6-methylphenyl)-10-oxo-5,6-dihydro-10H-pyrazolo[1,5-a]pyrido[2,2-c]pyrazine-12-carboxylic acid] | 200 to 1000 nM | > 25000 nM
16 | C[C@@H]1Cn2nc(-c3cccc(F)c3)c(-c3cccc(F)c3)c2-c2cc(=O)c(C(=O)O)cn21 [Example 205, (R)-1,2-bis(3-fluorophenyl)-6-methyl-10-oxo-5,6-dihydro-10H-pyrazolo[1,5-a]pyrido[2,1-c]pyrazine-9-carboxylic acid] | < 100 nM | 10000 to 25000 nM
17 | CCOc1ccc(F)cc1-c1cc2n(n1)C[C@@H](C(C)(C)C)n1cc(C(=O)O)c(=O)cc1-2 [Example 73, (R)-6-(tert-butyl)-2-(2-ethoxy-5-fluorophenyl)-10-oxo-5,6-dihydro-10H-pyrazolo[1,5-a]pyrido[2,2-c]pyrazine-12-carboxylic acid] | < 100 nM | > 25000 nM
18 | COc1cccc(-c2nn3c(c2-c2cccc(OC)c2)-c2cc(=O)c(C(=O)O)cn2[C@H](C(C)(C)C)C3)c1 [Example 97, (R)-6-(tert-butyl)-1,2-bis(3-methoxyphenyl)-10-oxo-5,6-dihydro-10H-pyrazolo[1,5-a]pyrido[2,1-c]pyrazine-9-carboxylic acid] | < 100 nM | > 25000 nM
19 | CC(C)[C@@H]1Cn2nc(-c3ccc(O)cc3)c(-c3ccc(O)cc3)c2-c2c(F)c(=O)c(C(=O)O)cn21 [Example 191, (R)-11-fluoro-1,2-bis(4-hydroxyphenyl)-6-isopropyl-10-oxo-5,6-dihydro-10H-pyrazolo[1,5-a]pyrido[2,1-c]pyrazine-9-carboxylic acid] | < 100 nM | > 25000 nM
20 | CCCOc1ccccc1-c1cc2n(n1)C[C@@H](C(C)(C)C)n1cc(C(=O)O)c(=O)cc1-2 [Example 77, (R)-6-(tert-butyl)-10-oxo-2-(2-propoxyphenyl)-5,6-dihydro-10H-pyrazolo[1,5-a]pyrido[2,2-c]pyrazine-12-carboxylic acid] | < 100 nM | > 25000 nM
21 | COc1ncc(-c2cc3n(n2)C[C@@H](C(C)(C)C)n2cc(C(=O)O)c(=O)cc2-3)cn1 [Example 6, (R)-6-(tert-butyl)-2-(2-methoxypyrimidin-5-yl)-10-oxo-5,6-dihydro-10H-pyrazolo[1,5-a]pyrido[2,2-c]pyrazine-12-carboxylic acid] | < 100 nM | > 25000 nM
